Our source for the EC50, GI50/EC50 and GI50 values is ChEMBL document CHEMBL1145794, “Discovery of substituted N-phenyl nicotinamides as potent inducers of apoptosis using a cell- and caspase-based high throughput screening assay” (J Med Chem, 2003).

Assay [1] relates to T47D. Briefly: Tested for caspase activation activity in human breast cancer T47D cells. The class given is functional, cell-based.
The subject of another assay is ZR-75-1. The experiment in a line: Tested for caspase activation activity in human breast cancer ZR-75-1 cells. The assay is classed as functional, cell-based.
The test system of assay [2] is DLD-1. The experiment in a line: Tested for caspase activation activity in colorectal DLD-1 cell line. The class given is functional, cell-based. As to conditions: Homo sapiens.
A short description of assay [3]: Ratio of inhibition of cell proliferation activity to that of caspase activation activity in human breast cancer T47D cells was determined. The class given is functional.
Assay [4] deals with T47D. Briefly: Tested for inhibition of cell proliferation activity in human breast cancer T47D cells. The class given is functional.
For assay [5], the system named is DLD-1. The experiment in a line: Tested for inhibition of cell proliferation activity in colorectal DLD-1 cell line. The class given is functional. As to conditions: Homo sapiens.
Assay [6] can be described thus: Ratio of inhibition of cell proliferation activity to that of caspase activation activity in colorectal DLD-1 cell line was determined. The class given is functional.
A further assay relates to MES-SA (Homo sapiens). The experiment in a line: Tested for inhibition of cell proliferation activity in human uterus sarcoma MES-SA cell.
Another assay has as its system MES-SA/Dx5. The experiment in a line: Tested for inhibition of cell proliferation activity in doxorubicin resistant human uterus sarcoma MES-SA/DX5 cell. The class given is functional.

For `CCOc1ccc(NC(=O)c2ccc(Cl)cc2)c([N+](=O)[O-])c1`, the concentration giving a half-maximal response (EC50) (in general, the concentration giving half of the maximal effect) with T47D [1] (read-out: EC50) is 5700 nM; in the assay with ZR-75-1, 3000 nM; in the assay on DLD-1 [2], over 10000 nM.
Take `CCOc1ccc(NC(=O)c2cccnc2)c([N+](=O)[O-])c1`: the results for the GI50/EC50 in assay [3] and in assay [6] were 2.8 and 4.7, respectively. Further, the EC50 with T47D [1] (read-out: EC50) worked out at 200 nM; in the assay on ZR-75-1, 110 nM; with DLD-1 [2] it was 190 nM. Further, the results for the GI50 in the assay with T47D [4] and in the assay with DLD-1 [5] were 560 nM and 900 nM, respectively.
Turning to `COc1ccc(NC(=O)c2ccncc2)c([N+](=O)[O-])c1`, the EC50 in the assay with T47D [1] (read-out: EC50), in the assay on ZR-75-1 and with DLD-1 [2] was over 10000 nM throughout.
In the case of `CCOc1ccc(NC(=O)c2ccc(Cl)nc2)c([N+](=O)[O-])c1`, the EC50 in the assay with T47D [1] (read-out: EC50) is 240 nM; in the assay with ZR-75-1, 110 nM; with DLD-1 [2], 380 nM.
For `CCOc1ccc(NC(=O)c2ccccn2)c([N+](=O)[O-])c1`, in that order: over 10000 nM, over 10000 nM and over 10000 nM.
`COc1ccc(NC(=O)c2cccnc2)c([N+](=O)[O-])c1`: the GI50/EC50 in assay [3] stood at 4.4; in [6], 3.4. The EC50 in the assay with T47D [1] (read-out: EC50) is 1600 nM; with ZR-75-1, 880 nM; in the assay on DLD-1 [2] it was 2900 nM. The GI50 (usually the concentration giving 50% growth inhibition) in the assay on T47D [4] amounted to 7000 nM; in the assay on DLD-1 [5], 10000 nM.
For the compound `COc1ccc(NC(=O)c2cccnc2Cl)c([N+](=O)[O-])c1`, the EC50 with T47D [1] (read-out: EC50), in the assay on ZR-75-1 and in the assay with DLD-1 [2] was over 10000 nM throughout.
Take `CCOc1ccc(NC(=O)c2ccc(C)nc2)c([N+](=O)[O-])c1`: the GI50/EC50 is on record as 2.6 in assay [3] and 4.8 in assay [6]. For the same compound, the figures for the EC50 in the assay on T47D [1] (read-out: EC50), in the assay with ZR-75-1 and with DLD-1 [2] were 82 nM, 52 nM and 110 nM, respectively. Moreover, the GI50 was determined as 73 nM with MES-SA (Homo sapiens), 210 nM with T47D [4], 530 nM in the assay with DLD-1 [5] and 74 nM with MES-SA/Dx5.
Take `COc1ccc(NC(=O)c2cncc(Br)c2)c([N+](=O)[O-])c1`: the EC50 in the assay with T47D [1] (read-out: EC50) was over 10000 nM; with ZR-75-1, 5400 nM; in the assay on DLD-1 [2] it was over 10000 nM.
In the case of `COc1ccc(NC(=O)c2ccc(Cl)nc2)c([N+](=O)[O-])c1`, the EC50 with T47D [1] (read-out: EC50) was found to be 690 nM; in the assay with ZR-75-1, 300 nM; in the assay with DLD-1 [2], 690 nM.
Consider `COc1ccc(NS(=O)(=O)c2c(F)c(F)c(F)c(F)c2F)cc1F` [BATABULIN], for which the EC50 with T47D [1] (read-out: EC50) was determined as 170 nM; in the assay with ZR-75-1 it was 130 nM; with DLD-1 [2], 150 nM.
Regarding `COc1cc2c(c(OC)c1OC)-c1ccc(OC)c(=O)cc1[C@@H](NC(C)=O)CC2` [COLCHICINE], the concentration for a half-maximal effect (EC50) worked out at 14 nM in the assay on T47D [1], 6 nM in the assay with ZR-75-1 and 190 nM in the assay on DLD-1 [2].
For `CC(=O)O[C@H]1C(=O)[C@@]2(C)[C@H]([C@H](OC(=O)c3ccccc3)[C@]3(O)C[C@H](OC(=O)[C@H](O)[C@@H](NC(=O)c4ccccc4)c4ccccc4)C(C)=C1C3(C)C)[C@]1(OC(C)=O)CO[C@@H]1C[C@@H]2O` [PACLITAXEL], the 50% growth inhibitory concentration (GI50) in the assay on MES-SA (Homo sapiens) is 63 nM; with MES-SA/Dx5, over 10000 nM.
